Where a name gives a salt, the structure may show the parent alone.
Legend:
V1 receptor = V1 receptor (Rattus norvegicus, UniProt P30560); assay: biochemical; details: rat liver plasma membrane, [3H]-Arg-vasopressin, 37° C., 10 minutes, pH 8.0; read-out: IC50 in V1 receptor binding assay
Method: Experiment 1: V1 receptor binding assay
Using rat liver plasma membrane preparations prepared according to Ichihara's method [cf: Akira Ichihara, J. Bio. Chem., 258, 9283 (1983)], the plasma membrane (50000 dpm, 2×10^-10 M) of [^3 H]-Arg-vasopressin and a test compound (60 μg, 10^-8 to 10^-4 M) are incubated at 37° C. for 10 minutes in 100 mM Tris-HCl buffer (pH: 8.0) (250 μl) containing 5 mM MgCl2, 1 mM EDTA and 0.1% BSA. After incubation, the mixture is filtered three times using the glass filter (GF/F) so as to separate the membrane preparation binding with vasopressin and then washed with the buffer (5 ml). This glass filter is taken out and mixed with liquid scintillation cocktail. The amount of [^3 H]-vasopressin binding with the membrane is measured by liquid scintillation counter and the rate of the inhibitory effect of the test compound is estimated according to the following equation. [formula] C1 : The amount of [^3 H]-vasopressin binding with the membrane in the presence of the test compound (known amount)
(§1) C0 : The amount of [^3 H]-vasopressin binding with the membrane in the absence of the test compound
(§2) B1 : The amount of [^3 H]-vasopressin binding with the membrane in the presence of the excess amount of vasopressin (10^-6 M)
(§3) The results are expressed as IC50 value, which is the concentration of the test compound required to achieve the inhibitory effect in the rate of 50%.

V2 receptor = target: T1, V2 receptor (Rattus norvegicus, UniProt Q00788); assay: biochemical; details: rat kidney plasma membrane, [3H]-Arg-vasopressin, 4° C., pH 8.0, read-out: IC50 in V2 receptor binding assay
T1 construct: Using rat kidney plasma membrane preparations; from tissue; host or cells: rat kidney plasma membrane
Method: Experiment 2: V2 receptor binding assay
Using rat kidney plasma membrane preparations prepared according to O. Hechter's method [cf: J. Bio. Chem., 253, 3211 (1978)], the plasma membrane (100000 dpm, 4×10^-10 M) of [^3 H]-Arg-vasopressin and a test compound (0.6 mg, 10^-10 to 10^-5 M) are incubated at 4° C. for 3 hours in 100 mM Tris-HCl buffer (pH: 8.0) (250 μl) containing 5 mM MgCl2, 1 mM EDTA and 0.1% BSA. After incubation, the mixture is filtered using the glass filter (GF/F) so as to separate the membrane preparation binding with vasopressin and then washed twice with the buffer (each 5 ml). This glass filter is taken out and mixed with liquid scintillation cocktail. The amount of [^3 H]-vasopressin binding with the membrane is measured by liquid scintillation counter and the rate of the inhibitory effect of the test compound is estimated according to the following equation. [formula] C1 : The amount of [^3 H]-vasopressin binding with the membrane in the presence of the test compound (known amount)
as §1, §2, §3

T1 sequence (Q00788 whole entry): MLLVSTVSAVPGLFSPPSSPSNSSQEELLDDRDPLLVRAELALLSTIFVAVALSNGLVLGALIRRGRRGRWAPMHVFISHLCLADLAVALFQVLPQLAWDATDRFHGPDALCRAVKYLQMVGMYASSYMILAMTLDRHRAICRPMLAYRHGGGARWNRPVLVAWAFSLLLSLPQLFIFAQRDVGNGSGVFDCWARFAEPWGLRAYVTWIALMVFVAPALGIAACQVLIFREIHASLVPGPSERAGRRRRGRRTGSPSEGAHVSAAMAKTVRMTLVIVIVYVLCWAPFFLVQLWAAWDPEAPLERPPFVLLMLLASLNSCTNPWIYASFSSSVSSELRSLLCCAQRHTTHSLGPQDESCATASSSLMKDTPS
Chain of V1 receptor (P30560 whole entry): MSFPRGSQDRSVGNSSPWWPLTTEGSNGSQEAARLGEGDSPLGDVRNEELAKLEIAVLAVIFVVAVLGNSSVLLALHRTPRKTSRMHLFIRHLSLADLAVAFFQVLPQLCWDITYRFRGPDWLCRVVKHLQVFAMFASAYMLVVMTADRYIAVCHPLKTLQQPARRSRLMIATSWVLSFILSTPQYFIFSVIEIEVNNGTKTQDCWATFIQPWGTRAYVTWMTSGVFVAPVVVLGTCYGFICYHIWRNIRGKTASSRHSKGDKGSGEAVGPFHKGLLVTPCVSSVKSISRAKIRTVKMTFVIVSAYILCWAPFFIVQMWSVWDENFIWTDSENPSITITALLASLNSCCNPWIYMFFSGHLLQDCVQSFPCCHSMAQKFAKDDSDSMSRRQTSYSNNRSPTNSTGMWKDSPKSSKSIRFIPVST

Structure (SMILES): Cc1ccccc1C(=O)Nc1ccc(C(=O)N2CCCC(O)c3cc(Cl)ccc32)nc1 (centres unmarked) [Compound of Ex. 50]
- IC50 (V1 receptor): 78 nM
- IC50 (V2 receptor): 61 nM

Structure (SMILES): Cc1ccccc1C(=O)Nc1ccc(C(=O)N2CCCC(CC(=O)N3CCN(C)CC3)c3cc(Cl)ccc32)cn1 (centres unmarked) [Compound of Ex. 42]
- IC50 (V1 receptor): 30 nM
- IC50 (V2 receptor): 3 nM

Structure (SMILES): COc1ccccc1C(=O)Nc1ccc(C(=O)N2CCCC(O)c3cc(Cl)ccc32)cn1 (centres unmarked) [Compound of Ex. 28]
- IC50 (V1 receptor): 77 nM
- IC50 (V2 receptor): 170 nM

Structure (SMILES): CC(=O)NCCC1CCCN(C(=O)c2ccc(NC(=O)c3ccccc3C)nc2)c2ccc(Cl)cc21 (centres unmarked) [Compound of Ex. 143, 7-chloro-5-(2-acetylamino-ethyl)-1-[6-(2-methylbenzoylamino)nicotinoyl]-2,3,4,5-tetrahydro-1H-benzazepine]
- IC50 (V1 receptor): 6.6 nM
- IC50 (V2 receptor): 3.1 nM

Structure (SMILES): CCN(CC)CCN(C)C(=O)COC1CCCN(C(=O)c2ccc(NC(=O)c3ccccc3Cl)nc2)c2ccc(Cl)cc21 (centres unmarked) [Compound of Ex. 175]
- IC50 (V1 receptor): 8.4 nM
- IC50 (V2 receptor): 2.7 nM

Structure (SMILES): O=C(Nc1ccc(C(=O)N2CCCC(NC3CC3)c3cc(Cl)ccc32)cn1)c1ccccc1Cl (centres unmarked) [Compound of Ex. 78]
- IC50 (V1 receptor): 17 nM
- IC50 (V2 receptor): 10 nM

Structure (SMILES): Cc1ccccc1C(=O)Nc1ccc(C(=O)N2CCCC(OC(=O)CN(C)C)c3cc(Cl)ccc32)cn1 (centres unmarked) [Compound of Ex. 189]
- IC50 (V1 receptor): 34 nM
- IC50 (V2 receptor): 12 nM

Structure (SMILES): COC1CCCN(C(=O)c2ccc(NC(=O)c3ccccc3Br)nc2)c2ccc(Cl)cc21 (centres unmarked) [Compound of Ex. 73]
- IC50 (V1 receptor): 12 nM
- IC50 (V2 receptor): 1.9 nM

Structure (SMILES): Cc1ccccc1C(=O)Nc1cnc(C(=O)N2CCCC(O)c3cc(Cl)ccc32)s1 (centres unmarked) [Compound of Ex. 49]
- IC50 (V1 receptor): 41 nM
- IC50 (V2 receptor): 250 nM

Structure (SMILES): O=C(Nc1ccc(C(=O)N2CCCC(O)c3cc(Cl)ccc32)cn1)c1ccccc1[N+](=O)[O-] (centres unmarked) [Compound of Ex. 29]
- IC50 (V1 receptor): 24 nM
- IC50 (V2 receptor): 11 nM

Structure (SMILES): NC(=O)COC1CCCN(C(=O)c2ccc(NC(=O)c3ccccc3Cl)nc2)c2ccc(Cl)cc21 (centres unmarked) [Compound of Ex. 171]
- IC50 (V1 receptor): 7.1 nM
- IC50 (V2 receptor): 3.1 nM

Structure (SMILES): Cc1ccccc1C(=O)Nc1ccc(C(=O)N2CCC(O)Cc3cc(Cl)ccc32)cn1 (centres unmarked) [Compound of Ex. 148]
- IC50 (V1 receptor): 27 nM
- IC50 (V2 receptor): 17 nM

Structure (SMILES): Cc1ccccc1C(=O)Nc1ccc(C(=O)N2CCCC(OCCO)c3cc(Cl)ccc32)cn1 (centres unmarked) [Compound of Ex. 36, 7-chloro-5-(2-hydroxyethoxy)-1-[6-(2-methylbenzoylamino)nicotinoyl]-2,3,4,5-tetrahydro-1H-benzazepine]
- IC50 (V1 receptor): 43 nM
- IC50 (V2 receptor): 3 nM

Structure (SMILES): O=C(O)COC1CCCN(C(=O)c2ccc(NC(=O)c3ccccc3Cl)nc2)c2ccc(Cl)cc21 (centres unmarked) [Compound of Ex. 169]
- IC50 (V1 receptor): 117 nM
- IC50 (V2 receptor): 19 nM

Structure (SMILES): Cc1ccccc1C(=O)Nc1ccc(C(=O)N2CCCC(O)(CO)c3cc(Cl)ccc32)cn1 (centres unmarked) [Compound of Ex. 34]
- IC50 (V1 receptor): 66 nM
- IC50 (V2 receptor): 16 nM

Structure (SMILES): Cc1ccccc1C(=O)Nc1ccc(C(=O)N2CCN(C)Cc3cc(Cl)ccc32)cn1 [Compound of Ex. 47]
- IC50 (V1 receptor): 150 nM
- IC50 (V2 receptor): 89 nM

Structure (SMILES): Cc1ccccc1C(=O)Nc1ccc(C(=O)N2CCCC(CC(=O)N(C)C)c3cc(Cl)ccc32)cn1 (centres unmarked) [Compound of Ex. 41]
- IC50 (V1 receptor): 22 nM
- IC50 (V2 receptor): 4 nM

Structure (SMILES): CN(C)C(=O)COC1CCCN(C(=O)c2ccc(NC(=O)c3ccccc3Cl)nc2)c2ccc(Cl)cc21 (centres unmarked) [Compound of Ex. 173]
- IC50 (V1 receptor): 24 nM
- IC50 (V2 receptor): 5.3 nM

Structure (SMILES): Cc1ccccc1C(=O)Nc1ccc(C(=O)N2CCCC(OCCN3CCOCC3)c3cc(Cl)ccc32)cn1 (centres unmarked) [Compound of Ex. 182]
- IC50 (V1 receptor): 28 nM
- IC50 (V2 receptor): 10 nM

Structure (SMILES): Cc1ccccc1C(=O)Nc1ccc(C(=O)N2CCCC(CCn3cncn3)c3cc(Cl)ccc32)cn1 (centres unmarked) [Compound of Ex. 140]
- IC50 (V1 receptor): 31 nM
- IC50 (V2 receptor): 5.6 nM

Structure (SMILES): CC(=O)N1CCN(CCOC2CCCN(C(=O)c3ccc(NC(=O)c4ccccc4Cl)nc3)c3ccc(Cl)cc32)CC1 (centres unmarked) [Compound of Ex. 181]
- IC50 (V1 receptor): 15 nM
- IC50 (V2 receptor): 4.4 nM

Structure (SMILES): CN(C)CCOc1ccccc1C(=O)Nc1ccc(C(=O)N2CCCCc3cc(Cl)ccc32)cn1 [Compound of Ex. 96, 7-chloro-1-{6-[2-(2-dimethylaminoethoxy)benzoyl-amino]nicotinoyl}-2,3,4,5-tetrahydro-1H-benzazepine dihydrochloride]
- IC50 (V1 receptor): 43 nM
- IC50 (V2 receptor): 300 nM

Structure (SMILES): O=C(Nc1ccc(C(=O)N2CCCC(O)c3cc(Cl)ccc32)cn1)C1CCCCC1 (centres unmarked) [Compound of Ex. 32]
- IC50 (V1 receptor): 12 nM
- IC50 (V2 receptor): 16 nM

Structure (SMILES): Cc1ccccc1CC(=O)Nc1ccc(C(=O)N2CCCC(O)c3cc(Cl)ccc32)cn1 (centres unmarked) [Compound of Ex. 33]
- IC50 (V1 receptor): 7 nM
- IC50 (V2 receptor): 3 nM

Structure (SMILES): Cc1ccccc1C(=O)Nc1ccc(C(=O)N2CCCC(CC(=O)O)c3cc(Cl)ccc32)cn1 (centres unmarked) [Compound of Ex. 39]
- IC50 (V1 receptor): 910 nM
- IC50 (V2 receptor): 68 nM

Structure (SMILES): Cc1ccccc1C(=O)Nc1ccc(C(=O)N2CCCC(OCCn3ccnc3)c3cc(Cl)ccc32)cn1 (centres unmarked) [Compound of Ex. 178]
- IC50 (V1 receptor): 29 nM
- IC50 (V2 receptor): 8 nM

Structure (SMILES): CN1CCCN(C(=O)c2ccc(NC(=O)c3ccccc3Cl)nc2)c2ccc(Cl)cc21 [Compound of Ex. 53]
- IC50 (V1 receptor): 55 nM
- IC50 (V2 receptor): 19 nM

Structure (SMILES): Cc1ccccc1C(=O)Nc1ccc(C(=O)N2CCCC(OCC(=O)N3CCN(C)CC3)c3cc(Cl)ccc32)cn1 (centres unmarked) [Compound of Ex. 35]
- IC50 (V1 receptor): 20 nM
- IC50 (V2 receptor): 7 nM

Structure (SMILES): O=C(Nc1ccc(C(=O)N2CCCC(O)c3cc(Cl)ccc32)cn1)c1cccs1 (centres unmarked) [Compound of Ex. 31]
- IC50 (V1 receptor): 57 nM
- IC50 (V2 receptor): 120 nM

Structure (SMILES): Cc1ccccc1C(=O)Nc1ccc(C(=O)N2CCCC(O)c3cc(Cl)ccc32)cn1 (centres unmarked) [Compound of Ex. 25]
- IC50 (V1 receptor): 14 nM
- IC50 (V2 receptor): 4 nM

Structure (SMILES): Cc1ccccc1C(=O)Nc1ccc(C(=O)N2CCCC(O)c3cc(Cl)ccc32)s1 (centres unmarked) [Compound of Ex. 48]
- IC50 (V1 receptor): 67 nM
- IC50 (V2 receptor): 300 nM

Structure (SMILES): Cc1ccccc1C(=O)Nc1ccc(C(=O)N2CCCC(CCNC(C)C)c3cc(Cl)ccc32)cn1 (centres unmarked) [Compound of Ex. 139]
- IC50 (V1 receptor): 16 nM
- IC50 (V2 receptor): 4.1 nM

Structure (SMILES): O=C(Nc1ccc(C(=O)N2CCCC(CC(=O)N3CCNCC3)c3cc(Cl)ccc32)cn1)c1ccccc1Cl (centres unmarked) [Compound of Ex. 116, 7-chloro-5-(1-piperazinyl)carboxymethyl-1-[6-(2-chlorobenzoylamino)nicotinoyl]-2,3,4,5-tetrahydro-1H-benzazepine]
- IC50 (V1 receptor): 12 nM
- IC50 (V2 receptor): 3.1 nM

Structure (SMILES): CC(=O)NCCOC1CCCN(C(=O)c2ccc(NC(=O)c3ccccc3C)nc2)c2ccc(Cl)cc21 (centres unmarked) [Compound of Ex. 38, 7-chloro-5-(2-acetylaminoethoxy)-1-[6-(2-methylbenzoylamino)nicotinoyl]-2,3,4,5-tetrahydro-1H-benzazepine]
- IC50 (V1 receptor): 26 nM
- IC50 (V2 receptor): 3 nM

Structure (SMILES): CCN(CC)CCN(C)C(=O)CC1CCCN(C(=O)c2ccc(NC(=O)c3ccccc3C)nc2)c2ccc(Cl)cc21 (centres unmarked) [Compound of Ex. 105]
- IC50 (V1 receptor): 9 nM
- IC50 (V2 receptor): 3 nM

Structure (SMILES): CNC1CCCN(C(=O)c2ccc(NC(=O)c3ccccc3C)nc2)c2ccc(Cl)cc21 (centres unmarked) [Compound of Ex. 79]
- IC50 (V1 receptor): 41 nM
- IC50 (V2 receptor): 3.7 nM

Structure (SMILES): CC(=O)N1CCN(CCC2CCCN(C(=O)c3ccc(NC(=O)c4ccccc4Cl)nc3)c3ccc(Cl)cc32)CC1 (centres unmarked) [Compound of Ex. 128]
- IC50 (V1 receptor): 16 nM
- IC50 (V2 receptor): 4.6 nM

Structure (SMILES): O=C(Nc1ccc(C(=O)N2CCCC(OCCNC3CCCC3)c3cc(Cl)ccc32)cn1)c1ccccc1Cl (centres unmarked) [Compound of Ex. 187]
- IC50 (V1 receptor): 7.8 nM
- IC50 (V2 receptor): 8 nM

Structure (SMILES): Cc1cccc(C(=O)Nc2ccc(C(=O)N3CCCC(O)c4cc(Cl)ccc43)cn2)c1 (centres unmarked) [Compound of Ex. 26]
- IC50 (V1 receptor): 78 nM
- IC50 (V2 receptor): 21 nM

Structure (SMILES): O=C(Nc1ccc(C(=O)N2CCCC(CCn3ccnc3)c3cc(Cl)ccc32)cn1)c1ccccc1Cl (centres unmarked) [Compound of Ex. 129]
- IC50 (V1 receptor): 31 nM
- IC50 (V2 receptor): 4.8 nM

— US5498609A, “Benzoazepinyl compounds as oxytocin and vasopressin antagonists” (Otsuka Pharmaceutical Company, Limited, priority 1992, dated 1996)
